Patent publication US20120283216A1, “FUNGICIDAL 2-(BICYCLIC ARYLOXY)CARBOXAMIDES” (priority 2009, published 2012)

Assays:
Format in all cases: in vivo
[1] = tested on: Blumeria graminis f. sp. tritici; experiment: Test A: wheat powdery mildew, preventive spray on wheat seedlings, visual disease rating; conditions: preventive spray at 40 ppm, rated 8 days after inoculation; for pest or weed control at 40 ppm: Blumeria graminis, 192 h, read-out: Test A disease control rating (100 = 100% disease control, 0 = no disease control relative to the controls)
Summary of the method: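 Wheat seedlings sprayed to run-off with 40 ppm compound (equivalent to 800 g/ha) in acetone/water with 250 ppm surfactant, then dusted with B. graminis spores next day. Held at 20° C. for 8 days before visual rating, 0–100 scale as % disease control relative to controls.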

Septoria tritici = experiment: Test B: wheat leaf blotch, preventive spray on wheat seedlings, visual disease rating; conditions: preventive spray at 40 ppm, rated after 48 h + 19 days; for pest or weed control at 40 ppm: Zymoseptoria tritici, 504 h, read-out: Test B disease control rating (100 = 100% disease control, 0 = no disease control relative to the controls)
Summary of the method: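 Wheat seedlings were sprayed to run-off with 40 ppm compound (≈800 g/ha) in acetone/water with 250 ppm surfactant, then inoculated with Septoria tritici spores the next day. After 48 h saturated humidity at 20° C and 19 days in a growth chamber at 20° C, disease control was rated visually (0–100% vs controls).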

Botrytis cinerea = experiment: Test C: tomato botrytis, preventive spray on tomato seedlings, visual disease rating; conditions: preventive spray at 40 ppm, rated after 48 h + 3 days; for pest or weed control at 40 ppm: Botrytis cinerea, 120 h, read-out: Test C disease control rating (100 = 100% disease control, 0 = no disease control relative to the controls)
Summary of the method: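 Compounds applied at 40 ppm (≈800 g/ha) in acetone/water with surfactant, sprayed to run-off on tomato seedlings. Inoculated next day with B. cinerea spores; 48 h saturated humidity at 20 °C, then 3 days at 27 °C. Visual rating as % disease control versus untreated controls.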

| SMILES | pest or weed control at 40 ppm [1] [%] | pest or weed control at 40 ppm (Septoria tritici) [%] | pest or weed control at 40 ppm (Botrytis cinerea) [%] | Test A disease control rating (100 = 100% disease control, 0 = no disease control relative to the controls) [1] [%] | Test B disease control rating (100 = 100% disease control, 0 = no disease control relative to the controls) (Septoria tritici) [%] | Test C disease control rating (100 = 100% disease control, 0 = no disease control relative to the controls) (Botrytis cinerea) [%] |
| --- | --- | --- | --- | --- | --- | --- |
| CCC(Oc1cnc2c(Cl)cc(Cl)cc2c1)C(=O)NC(C)(C)C (stereo not drawn) [Compound 57] | 0 | 99 | 99 | – | – | – |
| CCC(Oc1cnc2ccc(Cl)cc2c1)C(=O)NC(C)(C)C (stereo not drawn) [Compound 40] | 92 | 100 | 99 | – | – | – |
| CCC(Oc1cnc2ccc(Br)cc2c1)C(=O)NC(C)(C)COC (stereo not drawn) [Compound 48] | – | – | – | 96 | 99 | 99 |
| CCC(Oc1ccc2ccc(Br)cc2c1)C(=O)NC(C)(C)CO (stereo not drawn) [Compound 16, 2-[(7-bromo-2-naphthalenyl)oxy]-N-(2-hydroxy-1,1-dimethylethyl)-butanamide] | 97 | 99 | 100 | – | – | – |
| C#CC(C)(C)NC(=O)C(OC)Oc1ccc2ccc(Br)cc2c1 (stereo not drawn) [Compound 94] | – | – | – | 99 | 100 | 100 |
| COCC(Oc1cnc2ccc(Br)cc2c1)C(=O)NC(C)(C)C (stereo not drawn) [Compound 34] | – | – | – | 0 | 92 | 94 |
| C#Cc1ccc2ccc(OC(OC)C(=O)NC(C)(C)COC)cc2c1 (stereo not drawn) [Compound 106, 2-[(7-ethynyl-2-naphthalenyl)oxy]-2-methoxy-N-(2-methoxy-1,1-dimethylethyl)acetamide] | 100 | 100 | 99 | – | – | – |
| CC#Cc1ccc2ncc(OC(OC)C(=O)NC(C)(C)COC)cc2c1 (stereo not drawn) [Compound 158] | – | – | – | 98 | 38 | 99 |
| C#CC(C)(C)NC(=O)C(OC)Oc1ccc2ccc(OC)cc2c1 (stereo not drawn) [Compound 82] | – | – | – | 96 | 99 | 100 |
| CCC(Oc1cnc2ccc(I)cc2c1)C(=O)NC(C)(C)C (stereo not drawn) [Compound 51, N-(1,1-dimethylethyl)-2-[(6-iodo-3-quinolinyl)oxy]butanamide] | 93 | 100 | 99 | – | – | – |
| CCC(Oc1ccc2ccc(Br)cc2c1)C(=O)NC(C)(C)C1CO1 (stereo not drawn) [Compound 19] | – | – | – | 0 | 60 | 98 |
| CC#Cc1ccc2ccc(OC(CC)C(=O)NC(C)(C)COC)cc2c1 (stereo not drawn) [Compound 107, N-(2-methoxy-1,1-dimethylethyl)-2-[[7-(1-propyn-1-yl)-2-naphthalenyl]oxy]butanamide] | 100 | 100 | 99 | – | – | – |
| CCC(Oc1cnc2ccc(I)cc2c1)C(=O)NC(C)(C)CO (stereo not drawn) [Compound 52] | – | – | – | 0 | 45 | 82 |
| COCC(C)(C)NC(=O)C(OC)Oc1ccc2ccc(C#C[Si](C)(C)C)cc2c1 (stereo not drawn) [Compound 105] | – | – | – | 79 | 100 | 90 |
| C#Cc1ccc2ncc(OC(CC)C(=O)NC(C)(C)C#N)cc2c1 (stereo not drawn) [Compound 152] | – | – | – | 88 | 100 | 94 |
| CCC(Oc1ccc2ccc(Br)cc2c1)C(=O)NC(C)(C)CNC(=O)OC(C)(C)C (stereo not drawn) [Compound 12] | – | – | – | 0 | 93 | 0 |
| C#CC(C)(C)NC(=O)C(CC)Oc1ccc2ccc(OCCC)cc2c1 (stereo not drawn) [Compound 129] | – | – | – | 96 | 99 | 99 |

| SMILES | pest or weed control at 40 ppm [1] [%] | pest or weed control at 40 ppm (Septoria tritici) [%] | pest or weed control at 40 ppm (Botrytis cinerea) [%] | Test A disease control rating (100 = 100% disease control, 0 = no disease control relative to the controls) [1] [%] | Test B disease control rating (100 = 100% disease control, 0 = no disease control relative to the controls) (Septoria tritici) [%] | Test C disease control rating (100 = 100% disease control, 0 = no disease control relative to the controls) (Botrytis cinerea) [%] |
| --- | --- | --- | --- | --- | --- | --- |
| CCC(Oc1ccc2ccc(C(F)F)cc2c1)C(=O)NC(C)(C)C#N (stereo not drawn) [Compound 77] | – | – | – | 0 | 99 | 67 |
| COCC(C)(C)NC(=O)C(C)Oc1cnc2ccc(Br)cc2c1 (stereo not drawn) [Compound 60] | – | – | – | 0 | 74 | 95 |
| CC(=O)C(Oc1ccc2ccc(Br)cc2c1)C(=O)NC(C)(C)C (stereo not drawn) [Compound 32] | 0 | 0 | 26 | – | – | – |
| CCC(Oc1ccc2ccc(Br)cc2c1)C(=O)NC(C)(C)COP(C)(C)=O (stereo not drawn) [Compound 10] | – | – | – | 21 | 99 | 98 |
| C#Cc1ccc2ccc(OC(CC)C(=O)NC(C)(C)C)cc2c1 (stereo not drawn) [Compound 109, N-(1,1-dimethylethyl)-2-[(7-ethynyl-2-naphthalenyl)oxy]butanamide] | 100 | 100 | 99 | – | – | – |
| C#Cc1ccc2ncc(OC(CC)C(=O)NC(C)(C)C)cc2c1 (stereo not drawn) [Compound 149] | – | – | – | 100 | 100 | 98 |
| CCCOc1ccc2ccc(OC(OC)C(=O)NC(C)(C)CC)cc2c1 (stereo not drawn) [Compound 136] | – | – | – | 79 | 98 | 97 |
| COCC(C)(C)NC(=O)C(OC)Oc1cnc2ccc(C#C[Si](C)(C)C)cc2c1 (stereo not drawn) [Compound 160] | – | – | – | 69 | 99 | 97 |
| CCC(Oc1ccc2ccc(OC)cc2c1)C(=O)N(CC)C(C)(C)C (stereo not drawn) [Compound 167] | 0 | 64 | 68 | – | – | – |
| CCC(Oc1cnc2ccc(Br)cc2c1)C(=O)NC(C)(C)CO (stereo not drawn) [Compound 39] | – | – | – | 21 | 0 | 33 |
| CCC(Oc1ccc2ccc(O)cc2c1)C(=O)NC(C)(C)C (stereo not drawn) [Compound 89] | 0 | 63 | 86 | – | – | – |
| C#CC1(NC(=O)C(CC)Oc2ccc3ccc(OC)cc3c2)CCCCC1 (stereo not drawn) [Compound 85] | 0 | 84 | 99 | – | – | – |
| CCC(Oc1ccc2ccc(OC)cc2c1)C(=O)N(C)C(C)(C)C (stereo not drawn) [Compound 166] | 0 | 46 | 99 | – | – | – |
| CCCOc1ccc2ccc(OC(OC)C(=O)NC(C)(C)COC)cc2c1 (stereo not drawn) [Compound 124] | – | – | – | 98 | 100 | 99 |
| C#CCOc1ccc2ccc(OC(CC)C(=O)NC(C)(C)C#C)cc2c1 (stereo not drawn) [Compound 135] | – | – | – | 0 | 98 | 99 |
| CCC(Oc1cc2cc(Br)ccc2cn1)C(=O)NC(C)(C)C (stereo not drawn) [Compound 67] | – | – | – | 92 | 77 | 100 |
